{"source": "patent EP0238198A2", "about": "“Method of modifying the lipid structure function and expression of cell membranes and pharmaceutical compositions for use therein” (Habib, Nagy Adly, priority 1986, dated 1987)", "key": {"[1]": {"system": "D23 Rat hepatoma", "test": "tumour cell colony inhibition test (clonogenic assay)", "type": "cell-based", "parameters": "inhibition of colony formation: dose or concentration left out as unconfirmed", "conditions": "for Mean no colonies ± SE: 5 days, medium control 41.8±3.5", "description": "Cells from rat mammary carcinoma (Sp 22), primary rat fibroblasts (from alveolar tissue) and four rat hepatoma cell lines (D23, D261, D262A and D262B) were studied.\nThe method used for rat cells was as follows: 200 cells were plated per dish in 1 ml 'Eagles' methionine enriched medium (MEM) + 10% newborn calf serum (NBCS) in 30 mm culture dishes and incubated for four hours at 37°C. All became firmly adherent during this initial incubation. […] To control dishes 1 ml of MEM + NBCS was added, or 1 ml of MEM + NBCS + 1% ethanol. The dishes were incubated for 5 days. Medium was then removed, and the cell colonies were rinsed with 0.9% W/V NaCl solution and fixed for 15 minutes with methanol. Cell colonies were stained with 1% aqueous crystal violet and the dishes were allowed to dry."}, "[2]": {"system": "type 2 herpes simplex virus (HSV)", "test": "HSV2 replication in human embryonic lung fibroblasts (virus yield)", "type": "cell-based, HSV type 2", "conditions": "Human alphaherpesvirus 2, Fibroblast, 28 h; for inhibition at 25 µM: stearic acid 25 µM; for inhibition at 50 µM: stearic acid 50 µM; for inhibition at 100 µM: stearic acid 100 µM", "description": "Stearic and iodinated stearic acids were assayed for their inhibitory effects on the replication of type 2 herpes simplex virus (HSV) in sub-confluent monolayer cultures of human embryonic lung fibroblasts. […] This was accomplished by reacting hydriodic acid with oleic acid in acetic acid at 20°C. Excess iodine was removed at the end of the reaction by the addition of an excess of sodium thiosulphate, and the product fatty acid was extracted into hexane.\nBovine serum albumin conjugates of the fatty acids (prepared according to the method of A.A.Spector and-J.C.Hoak, J.Anal.Biochem. 1969, 32, 297-302) were added to the cell culture medium at various concentrations in the range 25 - 100 micromolar final concentration and at various times before and after (from 0 to 12 hours) infection with partially purified clinical isolates of HSV type 2, at a multiplicity of infection of 0.1 plaque forming units/cell.\n28 hours after infection the titre of infectious virus in the culture supernatants was determined by standard infectious centre techniques on fresh human embryonic lung fibroblasts."}, "[3]": {"conditions": "Rattus norvegicus, 120 h, read-out: % colony formation relative to medium control"}, "[4]": {"conditions": "time relative to infection 0 hours, read-out: % reduction in virus yield compared with control cultures"}, "[5]": {"conditions": "time relative to infection 1 hours, read-out: % reduction in virus yield compared with control cultures"}, "[6]": {"conditions": "time relative to infection 2 hours, read-out: % reduction in virus yield compared with control cultures"}, "[7]": {"conditions": "time relative to infection 3 hours, read-out: % reduction in virus yield compared with control cultures"}, "[8]": {"conditions": "time relative to infection 4 hours, read-out: % reduction in virus yield compared with control cultures"}, "[9]": {"conditions": "time relative to infection 8 hours, read-out: % reduction in virus yield compared with control cultures"}, "[10]": {"conditions": "time relative to infection 12 hours, read-out: % reduction in virus yield compared with control cultures"}, "[11]": {"conditions": "time relative to infection -1 hours, read-out: % reduction in virus yield compared with control cultures"}, "[12]": {"conditions": "time relative to infection -2 hours, read-out: % reduction in virus yield compared with control cultures"}, "[13]": {"conditions": "time relative to infection -3 hours, read-out: % reduction in virus yield compared with control cultures"}, "[14]": {"conditions": "time relative to infection -4 hours, read-out: % reduction in virus yield compared with control cultures"}, "[15]": {"conditions": "time relative to infection -8 hours, read-out: % reduction in virus yield compared with control cultures"}, "[16]": {"conditions": "time relative to infection -12 hours, read-out: % reduction in virus yield compared with control cultures"}}, "note": "Read-outs that look alike come from different tables or passages of the source.", "data": [{"smiles": "CCCCCCCCCCCCCCCCCC(=O)O", "note": "[stearic acid, octadecanoic acid]", "values": [{"measurement": "inhibition of colony formation", "setting": "[1]", "result": "significant inhibition of colony formation"}, {"measurement": "activity at 0.01 µg/mL", "setting": "[1]; [3]", "result": 101, "unit": "%"}, {"measurement": "activity at 0.1 µg/mL", "setting": "[1]; [3]", "result": 88.5, "unit": "%"}, {"measurement": "activity at 1 µg/mL", "setting": "[1]; [3]", "result": 67, "unit": "%"}, {"measurement": "activity at 10 µg/mL", "setting": "[1]; [3]", "result": 67, "unit": "%"}, {"measurement": "activity at 50 µg/mL", "setting": "[1]; [3]", "result": 23, "unit": "%"}, {"measurement": "Mean no colonies ± SE", "setting": "[1]; stearic acid 10ng/ml", "result": "42.3±1.6"}, {"measurement": "Mean no colonies ± SE", "setting": "[1]; stearic acid 100 ng/ml", "result": "37.0±1.5"}, {"measurement": "Mean no colonies ± SE", "setting": "[1]; stearic acid 1μg/ml", "result": "28.0±1.5"}, {"measurement": "Mean no colonies ± SE", "setting": "[1]; stearic acid 10 μg/ml", "result": "28.0±2.9"}, {"measurement": "Mean no colonies ± SE", "setting": "[1]; stearic acid 50 μg/ml", "result": "10.0±2.6"}, {"measurement": "inhibition at 75 µM", "setting": "[2]; 75 micromolar in the culture medium, cells treated for 3-4 hours before infection, read-out: maximum anti-viral activity (reduction in virus yield)", "result": 48, "unit": "%"}, {"measurement": "inhibition at 25 µM", "setting": "[2]; [4]", "result": 0, "unit": "%"}, {"measurement": "inhibition at 25 µM", "setting": "[2]; [5]", "result": 5, "unit": "%"}, {"measurement": "inhibition at 25 µM", "setting": "[2]; [6]", "result": 0, "unit": "%"}, {"measurement": "inhibition at 25 µM", "setting": "[2]; [7]", "result": 10, "unit": "%"}, {"measurement": "inhibition at 25 µM", "setting": "[2]; [8]", "result": 1, "unit": "%"}, {"measurement": "inhibition at 25 µM", "setting": "[2]; [9]", "result": 0, "unit": "%"}, {"measurement": "inhibition at 25 µM", "setting": "[2]; [10]", "result": 3, "unit": "%"}, {"measurement": "inhibition at 25 µM", "setting": "[2]; [11]", "result": 6, "unit": "%"}, {"measurement": "inhibition at 25 µM", "setting": "[2]; [12]", "result": 14, "unit": "%"}, {"measurement": "inhibition at 25 µM", "setting": "[2]; [13]", "result": 4, "unit": "%"}, {"measurement": "inhibition at 25 µM", "setting": "[2]; [14]", "result": 2, "unit": "%"}, {"measurement": "inhibition at 25 µM", "setting": "[2]; [15]", "result": 10, "unit": "%"}, {"measurement": "inhibition at 25 µM", "setting": "[2]; [16]", "result": 0, "unit": "%"}, {"measurement": "inhibition at 50 µM", "setting": "[2]; [4]", "result": 7, "unit": "%"}, {"measurement": "inhibition at 50 µM", "setting": "[2]; [5]", "result": 8, "unit": "%"}, {"measurement": "inhibition at 50 µM", "setting": "[2]; [6]", "result": 0, "unit": "%"}, {"measurement": "inhibition at 50 µM", "setting": "[2]; [7]", "result": 10, "unit": "%"}, {"measurement": "inhibition at 50 µM", "setting": "[2]; [8]", "result": 0, "unit": "%"}, {"measurement": "inhibition at 50 µM", "setting": "[2]; [9]", "result": 5, "unit": "%"}, {"measurement": "inhibition at 50 µM", "setting": "[2]; [10]", "result": 9, "unit": "%"}, {"measurement": "inhibition at 50 µM", "setting": "[2]; [11]", "result": 27, "unit": "%"}, {"measurement": "inhibition at 50 µM", "setting": "[2]; [12]", "result": 30, "unit": "%"}, {"measurement": "inhibition at 50 µM", "setting": "[2]; [13]", "result": 27, "unit": "%"}, {"measurement": "inhibition at 50 µM", "setting": "[2]; [14]", "result": 8, "unit": "%"}, {"measurement": "inhibition at 50 µM", "setting": "[2]; [15]", "result": 0, "unit": "%"}, {"measurement": "inhibition at 50 µM", "setting": "[2]; [16]", "result": 0, "unit": "%"}, {"measurement": "inhibition at 75 µM", "setting": "[2]; stearic acid 75 µM, time relative to infection 0 hours, read-out: % reduction in virus yield compared with control cultures", "result": 18, "unit": "%"}, {"measurement": "inhibition at 75 µM", "setting": "[2]; stearic acid 75 µM, time relative to infection 1 hours, read-out: % reduction in virus yield compared with control cultures", "result": 0, "unit": "%"}, {"measurement": "inhibition at 75 µM", "setting": "[2]; stearic acid 75 µM, time relative to infection 2 hours, read-out: % reduction in virus yield compared with control cultures", "result": 9, "unit": "%"}, {"measurement": "inhibition at 75 µM", "setting": "[2]; stearic acid 75 µM, time relative to infection 3 hours, read-out: % reduction in virus yield compared with control cultures", "result": 0, "unit": "%"}, {"measurement": "inhibition at 75 µM", "setting": "[2]; stearic acid 75 µM, time relative to infection 4 hours, read-out: % reduction in virus yield compared with control cultures", "result": 3, "unit": "%"}, {"measurement": "inhibition at 75 µM", "setting": "[2]; stearic acid 75 µM, time relative to infection 8 hours, read-out: % reduction in virus yield compared with control cultures", "result": 10, "unit": "%"}, {"measurement": "inhibition at 75 µM", "setting": "[2]; stearic acid 75 µM, time relative to infection 12 hours, read-out: % reduction in virus yield compared with control cultures", "result": 5, "unit": "%"}, {"measurement": "inhibition at 75 µM", "setting": "[2]; stearic acid 75 µM, time relative to infection -1 hours, read-out: % reduction in virus yield compared with control cultures", "result": 41, "unit": "%"}, {"measurement": "inhibition at 75 µM", "setting": "[2]; stearic acid 75 µM, time relative to infection -2 hours, read-out: % reduction in virus yield compared with control cultures", "result": 38, "unit": "%"}, {"measurement": "inhibition at 75 µM", "setting": "[2]; stearic acid 75 µM, time relative to infection -3 hours, read-out: % reduction in virus yield compared with control cultures", "result": 47, "unit": "%"}, {"measurement": "inhibition at 75 µM", "setting": "[2]; stearic acid 75 µM, time relative to infection -4 hours, read-out: % reduction in virus yield compared with control cultures", "result": 48, "unit": "%"}, {"measurement": "inhibition at 75 µM", "setting": "[2]; stearic acid 75 µM, time relative to infection -8 hours, read-out: % reduction in virus yield compared with control cultures", "result": 3, "unit": "%"}, {"measurement": "inhibition at 75 µM", "setting": "[2]; stearic acid 75 µM, time relative to infection -12 hours, read-out: % reduction in virus yield compared with control cultures", "result": 8, "unit": "%"}, {"measurement": "inhibition at 100 µM", "setting": "[2]; [4]", "result": 11, "unit": "%"}, {"measurement": "inhibition at 100 µM", "setting": "[2]; [5]", "result": 14, "unit": "%"}, {"measurement": "inhibition at 100 µM", "setting": "[2]; [6]", "result": 8, "unit": "%"}, {"measurement": "inhibition at 100 µM", "setting": "[2]; [7]", "result": 11, "unit": "%"}, {"measurement": "inhibition at 100 µM", "setting": "[2]; [8]", "result": 0, "unit": "%"}, {"measurement": "inhibition at 100 µM", "setting": "[2]; [9]", "result": 7, "unit": "%"}, {"measurement": "inhibition at 100 µM", "setting": "[2]; [10]", "result": 1, "unit": "%"}]}]}
